This note sets out measurements from ChEMBL document CHEMBL5029193, “Design of Coibamide A Mimetics with Improved Cellular Bioactivity” (ACS Med Chem Lett, 2022).

Where a SMILES comes first, the peptide text is derived from it. Bridges are numbered along the chain shown (N, C = ends). [ ]: non-standard residue; d: D form. The star is where a group is joined. Bip = N[C@@H](Cc1ccc(-c2ccccc2)cc1)C(=O)O; dNMeaIle = CC[C@H](C)[C@@H](NC)C(=O)O; NMe2Val = CC(C)[C@@H](C(=O)*)N(C)C; NMeLys(Me) = CNCCCC[C@H](NC)C(=O)O; NMeI = CC[C@H](C)[C@H](NC)C(=O)O; NMeT = CN[C@H](C(=O)O)[C@@H](C)O; 2Pal = N[C@@H](Cc1ccccn1)C(=O)O; 3Pal = N[C@@H](Cc1cccnc1)C(=O)O; 4Pal = N[C@@H](Cc1ccncc1)C(=O)O; NMeL = CN[C@@H](CC(C)C)C(=O)O; NMeOrn = CN[C@@H](CCCN)C(=O)O; dNMeOrn = CN[C@H](CCCN)C(=O)O; dHiv = CC(C)[C@@H](O)C(=O)O; NMeS = CN[C@@H](CO)C(=O)O; NMeA = CN[C@@H](C)C(=O)O; dNMeA = CN[C@H](C)C(=O)O

This experiment has as its system A549. Briefly: Cytotoxicity against human A549 cells assessed as cell growth inhibition incubated for 72 hrs by MTS assay. The following applies: A549, 72 h. In kind it is functional, cell-based. Background: Formazan colour is commonly taken as a measure of viable cells.
A word on the IC50: it is the concentration that gives 50% inhibition. As to `CC[C@H](C)[C@H]1C(=O)N[C@@H](C)C(=O)N(C)[C@@H](CC(C)C)C(=O)N[C@H](Cc2ccc(OC)cc2)C(=O)N(C)CCCC[C@H](N(C)C(=O)[C@H](CC(C)C)N(C)C(=O)[C@H](C)N(C)C(=O)[C@H](OC(=O)[C@H](C(C)C)N(C)C)C(C)C)C(=O)N(C)[C@@H](C)C(=O)N1C` (NMe2Val-[dHiv][NMeA][NMeL][NMeLys(Me)][NMeA][NMeI]A[NMeL][dY](Me); lactam 4-C), the IC50 was more than 10 µM. As for `CC[C@H](C)[C@H]1C(=O)N[C@@H](C)C(=O)N(C)[C@@H](CC(C)C)C(=O)N[C@@H](Cc2ccc(OC)cc2)C(=O)N(C)CCCC[C@H](N(C)C(=O)[C@H](CC(C)C)NC(=O)[C@H](C)N(C)C(=O)[C@H](OC(=O)[C@H](C(C)C)N(C)C)C(C)C)C(=O)N(C)[C@@H](C)C(=O)N1C` (NMe2Val-[dHiv][NMeA]L[NMeLys(Me)][NMeA][NMeI]A[NMeL]Y(Me); lactam 4-C), the IC50 is 3.4 µM.

`CC[C@H](C)[C@H]1C(=O)N[C@@H](C)C(=O)N(C)[C@@H](CC(C)C)C(=O)N[C@@H](Cc2ccccn2)C(=O)N(C)CCCC[C@H](N(C)C(=O)[C@H](CC(C)C)N(C)C(=O)[C@H](C)N(C)C(=O)[C@H](OC(=O)[C@H](C(C)C)N(C)C)C(C)C)C(=O)N(C)[C@@H](C)C(=O)N1C` (NMe2Val-[dHiv][NMeA][NMeL][NMeLys(Me)][NMeA][NMeI]A[NMeL][2Pal]; lactam 4-C): the IC50 is more than 10 µM.

Consider `CC[C@H](C)[C@@H]1C(=O)N[C@@H](C)C(=O)N(C)[C@@H](CC(C)C)C(=O)N[C@@H](Cc2ccc(OC)cc2)C(=O)N(C)CCCC[C@H](N(C)C(=O)[C@H](CC(C)C)N(C)C(=O)[C@H](C)N(C)C(=O)[C@H](OC(=O)[C@H](C(C)C)N(C)C)C(C)C)C(=O)N(C)[C@@H](C)C(=O)N1C` (NMe2Val-[dHiv][NMeA][NMeL][NMeLys(Me)][NMeA][dNMeaIle]A[NMeL]Y(Me); lactam 4-C), for which the IC50 was more than 10 µM. Consider `CC[C@H](C)[C@H]1C(=O)N[C@@H](C)C(=O)N(C)[C@@H](CC(C)C)C(=O)N[C@@H](Cc2ccc(OC)cc2)C(=O)NCCC[C@@H](N(C)C(=O)[C@H](CC(C)C)N(C)C(=O)[C@H](C)N(C)C(=O)[C@H](OC(=O)[C@H](C(C)C)N(C)C)C(C)C)C(=O)N(C)[C@@H](C)C(=O)N1C` (NMe2Val-[dHiv][NMeA][NMeL][dNMeOrn][NMeA][NMeI]A[NMeL]Y(Me); lactam 4-C), for which the IC50 is more than 10 µM. `CC[C@H](C)[C@H]1C(=O)N[C@H](C)C(=O)N(C)[C@@H](CC(C)C)C(=O)N[C@@H](Cc2ccc(OC)cc2)C(=O)N(C)CCCC[C@H](N(C)C(=O)[C@H](CC(C)C)N(C)C(=O)[C@H](C)N(C)C(=O)[C@H](OC(=O)[C@H](C(C)C)N(C)C)C(C)C)C(=O)N(C)[C@@H](C)C(=O)N1C` (NMe2Val-[dHiv][NMeA][NMeL][NMeLys(Me)][NMeA][NMeI][dA][NMeL]Y(Me); lactam 4-C): the half-maximal inhibitory concentration (IC50) is more than 10 µM.

`CC[C@H](C)[C@H]1C(=O)N[C@@H](C)C(=O)N(C)[C@@H](CC(C)C)C(=O)N[C@@H](Cc2ccc(OC)cc2)C(=O)NCCC[C@H](N(C)C(=O)[C@H](CC(C)C)N(C)C(=O)[C@H](C)N(C)C(=O)[C@H](OC(=O)[C@H](C(C)C)N(C)C)C(C)C)C(=O)N(C)[C@@H](C)C(=O)N1C` (NMe2Val-[dHiv][NMeA][NMeL][NMeOrn][NMeA][NMeI]A[NMeL]Y(Me); lactam 4-C): the IC50 was more than 10 µM. To `CC[C@H](C)[C@H]1C(=O)N[C@@H](C)C(=O)N(C)[C@@H](CC(C)C)C(=O)N[C@@H](Cc2ccncc2)C(=O)N(C)CCCC[C@H](N(C)C(=O)[C@H](CC(C)C)N(C)C(=O)[C@H](C)N(C)C(=O)[C@H](OC(=O)[C@H](C(C)C)N(C)C)C(C)C)C(=O)N(C)[C@@H](C)C(=O)N1C` (NMe2Val-[dHiv][NMeA][NMeL][NMeLys(Me)][NMeA][NMeI]A[NMeL][4Pal]; lactam 4-C) belongs more than 10 µM; to `CC[C@H](C)[C@H]1C(=O)N[C@@H](C)C(=O)N(C)[C@@H](CC(C)C)C(=O)N[C@@H](Cc2cccnc2)C(=O)N(C)CCCC[C@H](N(C)C(=O)[C@H](CC(C)C)N(C)C(=O)[C@H](C)N(C)C(=O)[C@H](OC(=O)[C@H](C(C)C)N(C)C)C(C)C)C(=O)N(C)[C@@H](C)C(=O)N1C` (NMe2Val-[dHiv][NMeA][NMeL][NMeLys(Me)][NMeA][NMeI]A[NMeL][3Pal]; lactam 4-C), more than 10 µM; to `CC[C@H](C)[C@H]1C(=O)N[C@@H](C)C(=O)N(C)[C@@H](CC(C)C)C(=O)N[C@@H](Cc2ccc(OC)cc2)C(=O)N(C)CCCC[C@H](N(C)C(=O)[C@H](CC(C)C)N(C)C(=O)[C@H](C)N(C)C(=O)[C@H](OC(=O)[C@H](C(C)C)N(C)C)C(C)C)C(=O)N(C)[C@H](C)C(=O)N1C` (NMe2Val-[dHiv][NMeA][NMeL][NMeLys(Me)][dNMeA][NMeI]A[NMeL]Y(Me); lactam 4-C), more than 10 µM. As to `CC[C@H](C)[C@H]1C(=O)N[C@@H](C)C(=O)N(C)[C@@H](CC(C)C)C(=O)N[C@@H](Cc2ccc(-c3ccccc3)cc2)C(=O)N(C)[C@H](C)C(=O)O[C@H](C)[C@H](N(C)C(=O)[C@H](CC(C)C)N(C)C(=O)[C@H](COC)N(C)C(=O)[C@H](OC(=O)[C@H](C(C)C)N(C)C)C(C)C)C(=O)N(C)[C@@H](COC)C(=O)N1C` (NMe2Val-[dHiv][NMeS](Me)[NMeL][NMeT][NMeS](Me)[NMeI]A[NMeL][Bip][dNMeA]; ester 4-C), the IC50 amounted to 0.00011 µM. As to `CC[C@H](C)[C@@H]1NC(=O)[C@H](C)N(C)C(=O)[C@@H](N(C)C(=O)[C@H](CC(C)C)N(C)C(=O)[C@H](C)N(C)C(=O)[C@H](OC(=O)[C@H](C(C)C)N(C)C)C(C)C)CCCCN(C)C(=O)[C@H](Cc2ccc(OC)cc2)NC(=O)[C@H](CC(C)C)N(C)C(=O)[C@H](C)NC1=O` (NMe2Val-[dHiv][NMeA][NMeL][NMeLys(Me)][NMeA]IA[NMeL]Y(Me); lactam 4-C), the half-inhibitory concentration (IC50) is more than 10 µM.
